Source: patent publication US11180495B2 (Abbisko Therapeutics Co., Ltd., priority 2017, dated 2021)
pIC50: −log10 of the molar value.

Columns and labels:
[1] = system: M-07e human cytomegalic leukemia cells; assay: KIT-related cell proliferation experiment (Cell Titer Glo); assay type: cell-based; details: 72 h, M-07e cells, SCF, 3 days, CTG, read-out: Cytological experiment KIT IC50
Description: (§1) Functional effects of compounds on the proliferation of several cell lines were evaluated by Cell Titer Glo (CTG) studies in the present invention, and effects of the compounds on the proliferation of different cells were evaluated to determine the selectivity degree of the compounds. In the study, M-07e human cytomegalic leukemia cells (cat. No. CBP60791) from Nanjing Kebai Biotechnology Co., Ltd. were cultured in an incubator under conditions of RPMI1640 (Gibco, cat. No. 11875-119), 20% fetal bovine serum (Gibco, 10099-141), human 10 ng/mL GM-CSF granulocyte macrophage colony-stimulating factors (R&D, cat. No. 215-GM-010), 37° C. and 5% CO2; and Kasumi-1 human acute myeloblastic leukemia cells (cat. No. CBP60524) were cultured in an incubator under conditions of RPMI1640 (Gibco, cat. No. 11875-119), 20% fetal bovine serum (Gibco, 10099-141), 37° C. and 5% CO2; NCI-H1703 human non-small cell lung squamous carcinoma cells (cat. No. CBP60115) were cultured in an incubator under conditions of RPMI1640 (Gibco, cat. No. 11875-119), 10% fetal bovine serum (Gibco, 10099-141), 37° C. and 5% CO2; and MV-4-11 human acute monocytic leukemia cells (cat. No. CBP60522) were cultured in an incubator under conditions of IMDM (Invitrogen, cat. No. 12440053), 20% fetal bovine serum (Gibco, 10099-141), 37° C. and 5% CO2. Since ATP is an index for viable cell metabolism, CTG (Promega, #G7573) reagent is a homogeneous detection method for detecting the number of viable cells in the culture by quantifying ATP. Therefore, compound-mediated inhibition for cell proliferation/survival was evaluated by quantifying ATP content in cells, and the specific experimental process was as follows.
I) M-07e Human Cytomegalic Leukemia Cell: • 1. The cells were plated into a tissue-culture-medium-treated 96-well plate (Costar #3904) with 3500 cells/well/80 μL fresh culture medium, and cultured for 24 hrs; • 2. the next day, 10 μL of culture medium containing testing compound with 10-fold of final concentration was added to each well; • 3.

[2] = target: T1, CSF-1R (Homo sapiens, UniProt P07333); assay: CSF-1R in vitro biochemical kinase study (ADP-Glo assay); details: 3.95 nM CSF-1R, 500 μM ATP, 30° C. 60 min, read-out: Enzymatic experiment CSF-1R IC50
T1 construct: 3.95 nM of CSF-1R, 500 μM of ATP and 0.2 mg/mL of polypeptide
Description: In the present invention, the inhibitory activity of compounds against the CSF-1R activity was determined by using CSF-1R ADP-Glo assay. The compound-mediated inhibition effect was achieved by inhibiting the production of ADP from consumption of ATP, and the activities of compounds were evaluated by using the ADP-Glo kit (Promega, cat. No. V9101). The specific experimental process was as follows: • 1. The kinase reaction performed in the present invention was carried out in a 384-well plate (Perkinelmer, cat. No. 6007290), and 3.95 nM of CSF-1R, 500 μM of ATP and 0.2 mg/mL of polypeptide (Poly (Glu4, Try1), Sigma, cat. No. P0275) were respectively weighed and added to each well: • 2. following reagents were then added to each well to reach the final reaction system: 40 mM Tris, pH 7.5, 20 mM MgCl2, 0.01% Triton X-100, 0.1 mg/mL BSA, 2.5 mM DTT and 0.1% DMSO; • 3. the reaction was conducted at 30° C. for 60 min; • 4. then an equal volume of stop solution (ADP-Glo) was added to the kinase reaction system; • 5. the mixed solution was incubated at 25° C. for 60 min, and the kinase reaction was then terminated; • 6. a two-fold volume of detection reagent was then added to each well; • 7. the mixed solution was incubated at 25° C. for 30 min; • 8. the compound IC50 value was measured by using a plate reader (Tecan, M1000) and a four-parameter curve was generated in Graphpad Prism. B. KIT/PDGFRA In Vitro Biochemical Kinase Study • 1. Preparation of 1-fold kinase buffer and stop solution • 1.1 1-fold kinase buffer: 50 mM HEPES, pH 7.5, 0.0015% Brij-35. • 1.2 stop solution: 100 mM HEPES, pH 7.5, 0.015% Brij-35, 0.2% Coating Reagent #3 50 mM EDTA • 2. Preparation of compound solution • 2.1 Dilution of compound solution • 1) The final concentration of the compound solution was 40 μM. and the concentration of the prepared stock solution was 50 times of the final concentration, i.e., 2 mM. • 2) 80 μL of 100% DMSO was added to the second well of the 96-well plate, then 20 μL of 10 mM compound solution was added, and thereby 2 mM compound solution was prepared, 60 μL of 100% DMSO was added to other wells, 20 μL of compound was taken from the second well, added to the third well and diluted by 4 times. This serial 4-time dilution was conducted in sequence for the total of 10 concentrations. • 2.2 5-fold compound solution transferred to a reaction plate • 1) 10 μL of solution was taken from each well of the above 96-well plate and added to another 96-well plate, and 90 μL of kinase buffer was added. • 2) 5 μL of solution was taken from the above 96-well plate and added to a 384-well reaction plate. • 2.3 Kinase reaction • 1) KIT/PDGFRA kinase was added to the 1-fold kinase buffer solution to obtain a 2.5-fold kinase solution. • 2) FAM-labeled polypeptide and ATP were added to the 1-fold kinase buffer solution to obtain a 2.5-fold substrate solution. • 3) 10 μL of 2.5-fold kinase solution was added to the 384-well reaction plate, which already contained 5 μL of 5-fold compound in 10% DMSO. And the mixed solution was incubated at room temperature for 10 min. • 4) 10 μL of 2.5-fold substrate solution was added to the 384-well reaction plate. • 5) Kinase reaction and termination: the mixed solution was incubated at 28° C. for a certain period of time, and 25 μL of stop solution was added to stop the reaction. • 2.4 Data reading of Caliper EZ Reader II • 2.5 Calculation of percent inhibition and IC50 • 1) Percent conversion data were copied from the Caliper EZ Reader. • 2) Percent conversion was converted into percent inhibition data, wherein, max referred to percent conversion of the DMSO control, and min referred to percent conversion of the negative control without kinase activity. Percent inhibition=(max−conversion)/(max−min)*100. • 3) The IC50 value was fitted with XLFit excel add-in version 5.4.0.8: Fitting formula: Y=Bottom+(Top−Bottom)/(1+(IC50/X)^HillSlope).

[3] = system: NCI-H1703 human non-small cell lung squamous carcinoma cells; assay: PDGFRA-related cell proliferation experiment (Cell Titer Glo); assay type: cell-based; details: 72 h, 3 days, CTG, read-out: Cytological experiment PDGFRA IC50
Description: as §1
II) NCI-H1703 Human Non-Small Cell Lung Squamous Carcinoma Cell • 1.

T1 sequence (P07333 20-972): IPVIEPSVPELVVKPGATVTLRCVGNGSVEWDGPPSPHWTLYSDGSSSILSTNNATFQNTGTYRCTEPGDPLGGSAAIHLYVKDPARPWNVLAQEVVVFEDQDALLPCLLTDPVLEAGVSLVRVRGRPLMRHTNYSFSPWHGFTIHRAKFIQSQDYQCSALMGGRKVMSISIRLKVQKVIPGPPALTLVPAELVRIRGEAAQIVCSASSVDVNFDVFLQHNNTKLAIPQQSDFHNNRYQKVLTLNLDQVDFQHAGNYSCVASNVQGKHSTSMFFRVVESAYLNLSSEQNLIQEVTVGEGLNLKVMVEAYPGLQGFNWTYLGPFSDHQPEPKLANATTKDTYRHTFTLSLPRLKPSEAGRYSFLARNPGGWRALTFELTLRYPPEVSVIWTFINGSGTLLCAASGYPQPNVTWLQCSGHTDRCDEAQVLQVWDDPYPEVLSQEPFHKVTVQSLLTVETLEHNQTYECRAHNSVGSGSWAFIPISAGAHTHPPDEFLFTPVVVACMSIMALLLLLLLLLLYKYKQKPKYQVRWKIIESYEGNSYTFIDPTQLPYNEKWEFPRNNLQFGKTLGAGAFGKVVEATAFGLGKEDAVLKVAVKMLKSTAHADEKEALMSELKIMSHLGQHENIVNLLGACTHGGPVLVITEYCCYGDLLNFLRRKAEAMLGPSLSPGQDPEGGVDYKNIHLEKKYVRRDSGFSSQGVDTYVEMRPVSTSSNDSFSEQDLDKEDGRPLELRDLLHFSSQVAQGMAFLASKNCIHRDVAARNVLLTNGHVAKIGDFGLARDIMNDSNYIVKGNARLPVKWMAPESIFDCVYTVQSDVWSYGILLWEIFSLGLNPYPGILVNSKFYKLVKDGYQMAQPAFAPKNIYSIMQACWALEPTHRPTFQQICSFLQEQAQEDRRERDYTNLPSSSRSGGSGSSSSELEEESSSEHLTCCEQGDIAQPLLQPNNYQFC

SMILES	pIC50 [1]	pIC50 [2]	pIC50 [3]
Cc1nc(-c2cnc(NC(C)C)[nH]c2=O)ccc1Cc1c[nH]c2ncc(F)cc12 [Example 5, 5-(5-((5-fluoro-1H-pyrrolo[2,3-b]pyridin-3-yl)methyl)-6-methylpyridin-2-yl)-2-(isopropylamino)pyrimidin-4(3H)-one]	5.95	7.34	5.74
Cc1nc(-c2cnc(NC(C)C)n(C)c2=O)ccc1Cc1c[nH]c2ncccc12 [Example 7, 5-(5-((1H-pyrrolo[2,3-b]pyridin-3-yl)methyl)-6-methylpyridin-2-yl)-2-(isopropylamino)-3-methylpyrimidin-4(3H)-one]	6.08	7.43	< 5.22
Cc1nc(-c2cnc3n(c2=O)CCCN3C)ccc1Cc1c[nH]c2ncc(Cl)cc12 [Example 13, 3-(5-((5-chloro-1H-pyrrolo[2,3-b]pyridin-3-yl)methyl)-6-methylpyridin-2-yl)-9-methyl-6,7,8,9-tetrahydro-4H-pyrimido[1,2-a]pyrimidin-4-one]	5.92	7.18	< 5.22
Cc1nc(-c2cnc3n(c2=O)CCCN3C)ccc1Cc1c[nH]c2ncccc12 [Example 14, 3-(5-((1H-pyrrolo[2,3-b]pyridin-3-yl)methyl)-6-methylpyridin-2-yl)-9-methyl-6,7,8,9-tetrahydro-4H-pyrimido[1,2-a]pyrimidin-4-one]	4.98	7.26	< 4.74
Cc1nc(-c2cnc3n(c2=O)CCC(C)N3C)ccc1Cc1c[nH]c2ncc(Cl)cc12 (stereo not drawn) [Example 15, 3-(5-((5-chloro-1H-pyrrolo[2,3-b]pyridin-3-yl)methyl)-6-methylpyridin-2-yl)-8,9-dimethyl-6,7,8,9-tetrahydro-4H-pyrimido[1,2-a]pyrimidin-4-one]	6.10	7.31	< 5.70
CCN1CCCn2c1ncc(-c1ccc(Cc3c[nH]c4ncc(Cl)cc34)c(C)n1)c2=O [Example 16, 3-(5-((5-chloro-1H-pyrrolo[2,3-b]pyridin-3-yl)methyl)-6-methylpyridin-2-yl)-9-ethyl-6,7,8,9-tetrahydro-4H-pyrimido[1,2-a]pyrimidin-4-one]	6.57	7.34	5.99
CCN1CCCn2c1ncc(-c1ccc(Cc3c[nH]c4ncc(-c5cnn(C)c5)cc34)c(C)n1)c2=O [Example 17]	7.41	8.27	7.24
Cc1nc(-c2cnc3n(c2=O)CCCN3C)ccc1Cc1c[nH]c2ncc(-c3cnn(C)c3)cc12 [Example 18, 9-methyl-3-(6-methyl-5-((5-(1-methyl-1H-pyrazol-4-yl)-1H-pyrrolo[2,3-b]pyridin-3-yl)methyl)pyridin-2-yl)-6,7,8,9-tetrahydro-4H-pyrimido[1,2-a]pyrimidin-4-one]	6.63	8.36	6.35
Cc1nc(-c2cnc3n(c2=O)CCCN3C)ccc1Cc1c[nH]c2ncc(F)cc12 [Example 20, 3-(5-((5-fluoro-1H-pyrrolo[2,3-b]pyridin-3-yl)methyl)-6-methylpyridin-2-yl)-9-methyl-6,7,8,9-tetrahydro-4H-pyrimido[1,2-a]pyrimidin-4-one]	5.50	7.34	< 4.74
Cc1cnc2[nH]cc(Cc3ccc(-c4cnc5n(c4=O)CCCN5C)nc3C)c2c1 [Example 21, 9-methyl-3-(6-methyl-5-((5-methyl-1H-pyrrolo[2,3-b]pyridin-3-yl)methyl)pyridin-2-yl)-6,7,8,9-tetrahydro-4H-pyrimido[1,2-a]pyrimidin-4-one]	5.82	7.02	< 4.74
COc1cnc2[nH]cc(Cc3ccc(-c4cnc5n(c4=O)CCCN5C)nc3C)c2c1 [Example 22, 3-(5-((5-methoxy-1H-pyrrolo[2,3-b]pyridin-3-yl)methyl)-6-methylpyridin-2-yl)-9-methyl-6,7,8,9-tetrahydro-4H-pyrimido[1,2-a]pyrimidin-4-one]	5.82	7.36	< 5.70
Cc1nc(-c2cnc3n(c2=O)CCCN3C)ccc1Cc1c[nH]c2ncc(O)cc12 [Example 23]	5.73	7.41	< 5.22
